{"source": "patent US10143691B2", "about": "“Pathogenic control of apoptosis” (CSIR, priority 2014, dated 2018)", "type_in_all_cases": "cell-based", "key": {"ATMpSer1981": {"test_system": "ATMpSer1981", "test": "Immunofluorescence staining of activated ATM (ATMpSer1981)", "details": "Ghost(3) cells, Doxorubicin 500 nM, no HIV", "experimental": "(§1) For each experiment, Ghost(3) cells or IPSC-derived primary macrophages were infected or treated with 500 nM Doxorubicin on coverslips, fixed for 10 mins in fresh 4% paraformaldehyde at room temperature, then washed 3 times in PBS and permeabilised for 10 mins in ice-cold methanol at […]. Coverslips were washed once in PBS and incubated in blocking buffer (5% goat serum, 0.3% TritonX100 in PBS) for 60 mins at room temperature. Cells were incubated in primary antibody solution (1% BSA, 0.3% Triton X100 in PBS) overnight at 4° C. Double strand breaks were detected using rabbit polyclonal anti-phosphohistone H2A.X Ser139 (Cell Signaling). Activated ATM was detected using rabbit monoclonal anti-phosphoATM Ser1981 (Cell Signaling). The ability of p53 to regulate apoptosis was detected using rabbit polyclonal antiphosphop53 Ser46 (Cell Signaling). Viral p24 was detected using mouse monoclonal anti-HIV1p24 (AIDS Research and Reference Reagent Program, Division of AIDS, NIAID, NIH). HuR was detected using mouse monoclonal anti-HuR 3A2 (Santa Cruz Biotechnology). hnRNPK was detected using goat polyclonal anti-hnRNPK P20 (Santa Cruz Biotechnology). Coverslips were washed 3 times (5 mins each on an orbital shaker) with wash buffer (0.05% Tween20 in PBS), followed by incubation with secondary antibodies conjugated to either Atto550 or Atto565 or Atto647 for 60 mins at room temperature. […]"}, "HuR": {"test_system": "HuR", "test": "Immunofluorescence of HuR cellular location in Ghost(3) cells", "details": "Ghost(3) cells, Doxorubicin-treated, no HIV", "experimental": "as §1, with “Biotechnology).” for “Biotechnology). Coverslips were washed 3 times (5 mins each on an orbital shaker) with wash buffer (0.05% Tween20 in PBS), followed by incubation with secondary antibodies conjugated to either Atto550 or Atto565 or Atto647 for 60 mins at room temperature.”\nFor each experiment, cells were infected or treated with drugs on coverslips, fixed for 10 mins in fresh 4% paraformaldehyde at room temperature, then washed 3 times in PBS and permeabilised for 10 mins in ice-cold methanol at −20° C. […] Double strand breaks were detected using rabbit polyclonal anti-phospho-histone H2A.X Ser139 (Cell Signaling). Activated ATM was detected using rabbit monoclonal anti-phospho-ATM Ser1981 (Cell Signaling). The ability of p53 to regulate apoptosis was detected using rabbit polyclonal anti-phospho-p53 Ser46 (Cell Signaling). Viral p24 was detected using mouse monoclonal anti-HIV-1-p24 (AIDS Research and Reference Reagent Program, Division of AIDS, NIAID, NIH). HuR was detected using mouse monoclonal anti-HuR 3A2 (Santa Cruz Biotechnology). hnRNP-K was detected using goat polyclonal anti-hnRNP-K P-20 (Santa Cruz Biotechnology). […]"}, "hnRNP-K": {"test_system": "hnRNP-K", "test": "Immunofluorescence of hnRNP-K cellular location in iPSC-derived macrophages", "details": "iPSC-derived (primary) macrophages, Doxorubicin-treated, no HIV", "experimental": "as §1"}, "p53pSer46": {"test_system": "p53pSer46", "test": "Immunofluorescence staining of p53pSer46 apoptotic mark", "details": "Ghost(3) cells, Doxorubicin 500 nM, no HIV", "experimental": "as §1"}}, "note": "Entries after “also recorded” stand apart in the source; their conditions may differ."}
{"smiles": "COc1cccc2c1C(=O)c1c(O)c3c(c(O)c1C2=O)C[C@@](O)(C(=O)CO)C[C@@H]3O[C@H]1C[C@H](N)[C@H](O)[C@H](C)O1", "note": "[Doxorubicin]", "values": [{"measurement": "phosphorylation of ATM at Ser1981", "setting": "ATMpSer1981", "value": "phosphorylation of both ATMpSer1981 and p53pSer46 in the nucleus within 8 hours; also recorded: Phosphorylated ATM is detected"}, {"measurement": "cellular location of HuR", "setting": "HuR", "value": "cytoplasmic HuR within 8 hours; also recorded: moved from the nucleus into the cytoplasm within 8 hours of treatment"}, {"measurement": "cellular location of hnRNP-K", "setting": "hnRNP-K", "value": "nuclear hnRNP-K within 8 hours; also recorded: nuclear hnRNPK within 8 hours"}, {"measurement": "phosphorylation of p53 at Ser46", "setting": "p53pSer46", "value": "phosphorylation of both ATMpSer1981 and p53pSer46 in the nucleus within 8 hours; also recorded: Activated p53 dimers are detected"}]}
